Test system: not listed separately
Test: Kinetic solubility (turbidity)
Assay type: physicochemical
Conditions: aqueous buffer, kinetic from dmso stock; kinetic solubility by turbidity; test range 3.125 μM to 200 μM; 10 mM PBS pH 7.4
Description: Unless otherwise stated, laboratory reagent grade solvents were used. Reagents were obtained from Sigma-Aldrich, Acros Organics or Fluorochem and were used without further purification. Characterization of all compounds was done with ^1H and ^13C NMR and mass spectrometry. ^1H and ^13C NMR spectra were recorded on a 400 MHz Bruker Avance III Nanobay spectrometer with Ultrashield and analyzed by use of MestReNova analytical chemistry software. Chemical shifts are in ppm, and coupling constants are in hertz (Hz). ES mass spectra were obtained from an Esquire 3000 plus ion trap mass spectrometer from Bruker Daltonics. Purities were determined with two diverse HPLC systems based either on mass determination or on UV detection. A Waters acquity UPLC system coupled to a Waters TQD ESI mass spectrometer or a Waters SQD ESI mass spectrometer was used both in combination with a Waters TUV detector. Water (A) and CH3CN (B) were used as eluents. LC-MS spectra were recorded on an Agilent 1100 series HPLC system using a Alltech Prevail C18 column (2.1 mm×50 mm, 3 μm) coupled with an Esquire 3000 plus as MS detector, and a “method A” 5-100% B, 20 min gradient was used with a flow rate of 0.2 mL/min. Formic acid, 0.1%, was added to solvents A and B. Waters Acquity UPLC BEH C18 1.7 μm, 2.1 mm×50 mm column was used. Solvent A consisted of water with 0.1% formic acid. Solvent B consisted of acetonitrile with 0.1% formic acid. Method I involved the following: 0.15 min 95% A, 5% B, then in 1.85 min from 95% A, 5% B to 95% B, 5% A, then 0.25 min (0.350 mL/min), 95% B, 5% A. The wavelength for UV detection was 254 nm. Method II involved the following: flow 0.4 mL/min, 0.25 min 95% A, 5% B, then in 4.75 min to 95% B, 5% A, then 0.25 min 95% B, 5% A, followed by 0.75 min 95% A, 5% B. The wavelength for UV detection was 214 nm. Where necessary, flash purification was performed on a Biotage ISOLERA One flash system equipped with an internal variable dual wavelength diode array detector (200-400 nm). For normal phase purifications SNAP cartridges (10-340 g, flow rate of 10-100 mL/min) were used, and reversed phase purifications were done making use of KP-C18 containing cartridges. Dry sample loading was done by self-packing samplet cartridges using silica and Celite 545, respectively, for normal and reversed phase purifications. Gradients used varied for each purification. Mouse and rat plasma came from Innovative Research. The turbidity in the kinetic solubility experiments was measured using the UV/vis spectrophotometer Synergy MX, Biotek with Gen5.

SMILES	solubility
CN1CCN(S(=O)(=O)c2ccc(NC3CCCCC3)c(N)c2)CC1 [Compound 31, N1-cyclohexyl-4-((4-methylpiperazin-1-yl)sulfonyl)benzene-1,2-diamine]	> 200 µM
Nc1cc(S(=O)(=O)N2CCOCC2)ccc1NC1CCCCC1 [Compound 32, N1-cyclohexyl-4-(morpholinosulfonyl)benzene-1,2-diamine]	> 200 µM

Test system: IMR-32 neuroblastoma cell line
Test: Inhibition of erastin-induced ferroptosis in IMR-32 cells (Sytox Green cell death readout)
Assay type: cell-based
Conditions: Homo sapiens; inhibiting ferroptosis in the IMR-32 neuroblastoma cell line stimulated with 10 μM erastin; compounds 1 nM to 1 μM, triplicate
Description: In the present disclosure, the potency of a compound inhibiting (or reducing) ferroptosis and/or oxytosis are determined in in vitro or in vivo assays. Typically in vitro assays are used to measure the potency of a candidate compound. Examples of suitable in vitro assays are cellular assays. One non-limiting example of an assay involves the use of the IMR-32 neuroblastoma cell line. The latter is stimulated to enter into ferroptosis upon stimulation with 10 μM erastin, a documented ferroptosis inducer (see, for example, Dixon et al. (2012) Cell 149, 1060-1072, and ferroptosis inhibitors are evaluated for the prevention of erastin-induced ferroptosis. Yet another assay is based the glutamate-induced cell death in the hippocampal cell line HT22 and ferroptosis/oxytosis inhibitors are evaluated for the prevention of cell death (see N. Henke et al. (2013) Cell Death and Disease 4, e470). Still another assay is based on the sorafinib-induced cell death (described to be iron dependent cell death) in hepatocellular carcinoma cells and ferroptosis inhibitors are evaluated for the prevention of cell death (see C. Louandre et al. (2013) Int. J. Cancer 133, 1732). The calculated potency of a compound inhibiting ferroptosis and/or oxytosis is typically depicted as an IC50 value. Examples of suitable in vivo assays are typically pre-clinical disease models of, for example, mice for the diseases benefiting the application of ferroptosis and/or oxytosis inhibitors, as described herein. One non-limiting example of an in vivo assay is based on inducing liver damage in mice by administering the herbicide diquat dibromide monohydrate and ferroptosis inhibitors are evaluated based on reduced levels of liver transaminases in serum (see Q. Ran et al. (2004) J. Biol. Chem. 279, 53, 55137).
The IC50 values for the individual compounds of the disclosure were determined in the neuroblastoma, IMR-32 cell line. In brief, IMR-32 cells were subjected to 10 μM erastin, the latter compound is known to induce ferroptosis. A concentration gradient (ranging from 1 nM to 1 μM) of the compounds was applied to the cells. These experiments were performed in a 96-well format (in triplicate), and cell death was analyzed in a fluorescent plate reader by use of a fluorescent cell death dye (1.5 μM Sytox Green). The IC50 values depicted in Table 1 are the concentration values for the individual compounds which are able to overcome ferroptosis.

SMILES	IC50
CCNS(=O)(=O)c1ccc(NC2CC2)c(N)c1 [Compound 20, 3-amino-4-(cyclopropylamino)-N-ethylbenzenesulfonamide]	0.076 µM
CCNS(=O)(=O)c1ccc(NC2CCCC2)c(N)c1 [Compound 21, 3-amino-4-(cyclopentylamino)-N-ethylbenzenesulfonamide]	0.082 µM
CCNS(=O)(=O)c1ccc(NC2CC3CCC2C3)c(N)c1 (stereo not drawn) [Compound 23, 3-amino-4-(bicyclo[2.2.1]heptan-2-ylamino)-N-ethylbenzenesulfonamide]	0.028 µM
CCNS(=O)(=O)c1ccc(NC2CCCCCCC2)c(N)c1 [Compound 24, 3-amino-4-(cyclooctylamino)-N-ethylbenzenesulfonamide]	0.0093 µM
CCNS(=O)(=O)c1ccc(NC2C3CC4CC(C3)CC2C4)c(N)c1 (stereo not drawn) [Compound 25, 4-(adamantan-2-ylamino)-3-amino-N-ethylbenzenesulfonamide]	0.017 µM
CNS(=O)(=O)c1ccc(NC2CCCCC2)c(N)c1 [Compound 26, 3-amino-4-(cyclohexylamino)-N-methylbenzenesulfonamide]	0.076 µM
CNS(=O)(=O)c1ccc(NC2C3CC4CC(C3)CC2C4)c(N)c1 (stereo not drawn) [Compound 27, 3-amino-4-(adamantan-2-ylamine)-N-methylbenzenesulfonamide]	0.011 µM
CC(C)(C)NS(=O)(=O)c1ccc(NC2CCCCC2)c(N)c1 [Compound 28, 3-amino-N-(tert-butyl)-4-(cyclohexylamino)benzenesulfonamide]	0.027 µM
CC(C)(C)NS(=O)(=O)c1ccc(NC2C3CC4CC(C3)CC2C4)c(N)c1 (stereo not drawn) [Compound 29, 3-amino-N-(tert-butyl)-4-(adamantan-2-ylamine)benzenesulfonamide]	0.006 µM
CC(C)(C)OCCNS(=O)(=O)c1ccc(NC2CCCCC2)c(N)c1 [Compound 30, 3-amino-N-(2-(tert-butoxy)ethyl)-4-(cyclohexylamino)benzenesulfonamide]	0.132 µM
CN1CCN(S(=O)(=O)c2ccc(NC3CCCCC3)c(N)c2)CC1 [Compound 31, N1-cyclohexyl-4-((4-methylpiperazin-1-yl)sulfonyl)benzene-1,2-diamine]	0.206 µM
Nc1cc(S(=O)(=O)N2CCOCC2)ccc1NC1CCCCC1 [Compound 32, N1-cyclohexyl-4-(morpholinosulfonyl)benzene-1,2-diamine]	0.208 µM
CCNS(=O)(=O)c1ccc(NC2CC2)c(NCc2ccccc2)c1 [Compound 33, 3-(benzylamino)-4-(cyclopropylamino)-N-ethylbenzenesulfonamide]	0.061 µM
CCNS(=O)(=O)c1ccc(NC2CC2)c(NCc2ccncc2)c1 [Compound 34, 4-(cyclopropylamino)-N-ethyl-3-((pyridin-4-ylmethyl)amino)benzenesulfonamide]	0.128 µM
CCNS(=O)(=O)c1ccc(NC2CCCC2)c(NCc2ccccc2)c1 [Compound 35, 3-(benzylamino)-4-(cyclopentylamino)-N-ethylbenzenesulfonamide]	0.0082 µM
CCNS(=O)(=O)c1ccc(NC2CCCC2)c(NCc2ccncc2)c1 [Compound 36, 4-(cyclopentylamino)-N-ethyl-3-((pyridin-4-ylmethyl)amino)benzenesulfonamide]	0.036 µM

SMILES	IC50
CCNS(=O)(=O)c1ccc(NC2CCCCC2)c(NCc2ccncc2)c1 [Compound 38, 4-(cyclohexylamino)-N-ethyl-3-((pyridin-4-ylmethyl)amino)benzenesulfonamide]	0.023 µM
CCNS(=O)(=O)c1ccc(NC2CC3CCC2C3)c(NCc2ccccc2)c1 (stereo not drawn) [Compound 40, 3-(benzylamino)-4-(bicyclo[2.2.1]heptan-2-ylamino)-N-ethylbenzenesulfonamide]	0.003 µM
CCNS(=O)(=O)c1ccc(NC2CC3CCC2C3)c(NCc2ccncc2)c1 (stereo not drawn) [Compound 41, 4-(bicyclo[2.2.1]heptan-2-ylamino)-N-ethyl-3-((pyridin-4-ylmethyl)amino) benzenesulfonamide]	0.0094 µM
CCNS(=O)(=O)c1ccc(NC2CCCCCCC2)c(NCc2ccccc2)c1 [Compound 42, 3-(benzylamino)-4-(cyclooctylamino)-N-ethylbenzenesulfonamide]	0.0024 µM
CCNS(=O)(=O)c1ccc(NC2CCCCCCC2)c(NCc2ccncc2)c1 [Compound 43, 4-(cyclooctylamino)-N-ethyl-3-((pyridin-4-ylmethyl)amino)benzenesulfonamide]	0.022 µM
CCNS(=O)(=O)c1ccc(NC2C3CC4CC(C3)CC2C4)c(NCc2cncnc2)c1 (stereo not drawn) [Compound 46, 4-(adamantan-2-ylamino)-N-ethyl-3-((pyrimidin-5-ylmethyl)amino)benzenesulfonamide]	0.047 µM
CNS(=O)(=O)c1ccc(NC2CCCCC2)c(NCc2ccccc2)c1 [Compound 47, 3-(benzylamino)-4-(cyclohexylamino)-N-methylbenzenesulfonamide]	0.0037 µM
CNS(=O)(=O)c1ccc(NC2CCCCC2)c(NCc2ccncc2)c1 [Compound 48, 4-(cyclohexylamino)-N-methyl-3-((pyridin-4-ylmethyl)amino)benzenesulfonamide]	0.015 µM
CNS(=O)(=O)c1ccc(NC2C3CC4CC(C3)CC2C4)c(NCc2ccccc2)c1 (stereo not drawn) [Compound 49, 4-(adamantan-2-ylamino)-3-(benzylamino)-N-methylbenzenesulfonamide]	0.0049 µM
CNS(=O)(=O)c1ccc(NC2C3CC4CC(C3)CC2C4)c(NCc2ccncc2)c1 (stereo not drawn) [Compound 50, 4-(adamantan-2-ylamino)-N-methyl-3-((pyridin-4-ylmethyl)amino)benzenesulfonamide]	0.0064 µM
CC(C)(C)NS(=O)(=O)c1ccc(NC2CCCCC2)c(NCc2ccccc2)c1 [Compound 51, 3-(benzylamino)-N-(tert-butyl)-4-(cyclohexylamino)benzenesulfonamide]	0.0062 µM
CC(C)(C)NS(=O)(=O)c1ccc(NC2CCCCC2)c(NCc2ccncc2)c1 [Compound 52, N-(tert-butyl)-4-(cyclohexylamino)-3-((pyridin-4-ylmethyl)amino)benzenesulfonamide]	0.011 µM
CC(C)(C)NS(=O)(=O)c1ccc(NC2C3CC4CC(C3)CC2C4)c(NCc2ccccc2)c1 (stereo not drawn) [Compound 53, 4-(adamantan-2-ylamino)-3-(benzylamino)-N-(tert-butyl)benzenesulfonamide]	0.0034 µM
CC(C)(C)NS(=O)(=O)c1ccc(NC2C3CC4CC(C3)CC2C4)c(NCc2ccncc2)c1 (stereo not drawn) [Compound 54, 4-(adamantan-2-ylamino)-N-(tert-butyl)-3-((pyridin-4-ylmethyl)amino)benzenesulfonamide]	0.0052 µM
CC(C)(C)OCCNS(=O)(=O)c1ccc(NC2CCCCC2)c(NCc2ccccc2)c1 [Compound 55, 3-(benzylamino)-N-(2-(tert-butoxy)ethyl)-4-(cyclohexylamino)benzenesulfonamide]	0.022 µM
